The values below come from PubChem BioAssay (NCI).

Holding throughout (assay): NCI tumour cell line growth inhibition, 48 h
Test [1] relates to CAKI-1 renal.
Test [2] concerns HCT-116 colon.
Test [3] deals with HCT-15 colon.
Test [4] relates to HOP-92 NSCLC.
For test [5], the system named is HS 578T breast.
Test [6] relates to HT29 colon.
Test [7] deals with KM12 colon.
Test [8] has as its system LOX IMVI melanoma.
Test [9] relates to M14 melanoma.
Test [10] deals with MALME-3M melanoma.
The test system of test [11] is MDA-MB-231 breast.
The test system of test [12] is OVCAR-3 ovarian.
For test [13], the system named is OVCAR-4 ovarian.
Test [14] relates to OVCAR-5 ovarian.
For test [15], the system named is OVCAR-8 ovarian.
Test [16] has as its system RXF 393 renal.
Test [17] deals with SF-268 CNS.
The test system of test [18] is SK-MEL-2 melanoma.
For test [19], the system named is T-47D breast.

Where “and” joins values, the source holds several entries; their conditions need not be identical. Equal entries are not always repeated.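 Growth conditions: 96-well plates. Treatment: test compound, 48 hours, 5 concentrations. Analysis: linear interpolation between bracketing concentrations; unreached endpoints set to highest concentration. Here, GI50 denotes the concentration required for 50% inhibition of growth. TGI marks complete inhibition of growth.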 Where a SMILES comes first, the peptide text is derived from it. [ ]: non-standard residue; d: D form. The star is where a group is joined. NMeV = CN[C@H](C(=O)O)C(C)C; X29 = COc1ccc(CN*)c(OC)c1; Octanoyl = CCCCCCCC(=O)*; dNMeA = CN[C@H](C)C(=O)O

As for `CCCCCCCC(=O)N[C@H](C(=O)N[C@H](C(=O)N(C)[C@H](C(=O)N1CCC[C@H]1C(=O)N(C)[C@H](C)C(=O)NCc1ccc(OC)cc1OC)C(C)C)C(C)C)C(C)C` (Octanoyl-VV[NMeV]P[dNMeA]-X29), the TGI in [1] was over 86.3 µM; in test [2], over 50.1 µM; in test [3], over 100 µM; in [4], 36.7 µM; in test [5], 33.4 µM; in [6], over 85.2 µM. In addition, the TGI in [7] is over 100 µM; in test [8], 30.8 µM; in test [9], over 68.1 µM; in test [10], 24.3 µM; in test [11], 35.5 µM; in test [12], over 100 µM. Moreover, the TGI in test [13] was over 79.9 µM; in test [14], over 100 µM; in test [15], over 100 µM; in [16] it was 46.1 µM; in test [17], over 100 µM; in test [18], 42.3 µM. The molecule further returned a TGI in test [19] of over 100 µM.

On to `CC(=O)c1ccc2c(c1)CC1(C2)Cc2cc3c(cc2C1=O)CCC3` (stereo not given), for which the TGI in test [1] is 47 µM; in test [2] it was 44 µM; in [3] it was 95.9 µM; in test [4] it was 65.5 µM; in [5], 89.5 µM; in [6] it was over 100 µM. For the same molecule, the TGI stood at 32.4 µM in test [7]; 40.6 µM in [8]; 28.9 µM in test [9]; 39.3 µM in test [10]; 49.6 µM in [11]; 40.6 µM in test [12]. Also, the TGI turned out to be 48 µM in test [13]; 83 µM in test [14]; 36.1 µM in [15]; 90.4 µM in [16]; 88 µM in [17]; 46.2 µM in test [18]. The molecule also yielded a TGI in test [19] of 88.5 µM.

Consider `C[C@]12CC[C@@H]3c4cc(OCC(F)(F)F)c(O)cc4CC[C@H]3[C@@H]1CC[C@@H]2O`, for which the TGI in test [1] is 29.9 µM; in [2] it was 16.7 µM; in [3], 15.2 µM; in test [4], 21.8 µM; in test [5], 23 µM; in test [6], 15.3 µM. The TGI came to 12.7 µM in [7]; 17.1 µM in test [8]; 16.8 µM in test [9]; 19 µM in [10]; 3.11 µM in test [11]; 12.9 µM in test [12]. In addition, the TGI in test [13] was over 53.1 µM; in [14] it was 37.7 µM; in test [15], 34.3 µM; in [16], 8.68 µM; in [17] it was 35.2 µM; in test [18] it was 18.5 µM. Also, the TGI in [19] turned out to be 49.5 µM.

`Cc1ccc(NC(Nc2ccc(C)cc2C)=C(/C=C(\Cl)[N+](=O)[O-])[N+](=O)[O-])c(C)c1`: the TGI in test [1] worked out at 4.23 µM; in test [2], 3.14 µM; in test [3], 11.5 µM; in test [4] it was 3.99 µM; in test [5], 17 µM; in test [6], 18.8 µM. The TGI in test [7] was 26.7 µM; in [8] it was 3.25 µM; in test [9], 5.69 µM; in [10], 7.13 µM; in [11] it was 17.3 µM; in test [12], 8.7 µM. For the same molecule, the TGI stood at 12.9 µM in test [13]; 19.7 µM in [14]; 7.86 µM in test [15]; 3.75 µM in test [16]; 10.3 µM in [17]; 16.9 µM in test [18]. The same molecule returned a TGI in test [19] of 3.99 µM.

Regarding `COC(=O)[C@@H]1CC(C(C[N+](=O)[O-])c2ccc(O[Si](C)(C)C(C)(C)C)cc2)C(=O)N1C(=O)OC(C)(C)C` (stereo not given in full), the TGI in test [1], in test [2], in test [4], in test [5], in test [6] and in [7] was over 100 µM throughout. Further, the TGI in test [8], in test [9], in test [10], in test [11], in test [12] and in [13] was over 100 µM throughout. Besides, the TGI in test [14], in test [15], in test [16], in test [17], in test [18] and in [19] was over 100 µM throughout. For the same molecule, in test [6], the GI50 is > 100 µM and 47.8 µM.

Take `O=C(CCCN1CCC2(CC1)CC(c1ccccc1)OC2=O)c1ccc(F)cc1` (stereo not given): the TGI in test [1] was 82.3 µM; in test [2] it was over 100 µM; in test [3], over 100 µM; in test [4], 76.9 µM; in test [5] it was 95.2 µM; in test [6], 35.2 µM. In addition, the TGI in test [7] was 97.1 µM; in test [8], 45.1 µM; in test [9], 30.9 µM; in test [10] it was 44 µM; in test [11] it was over 100 µM; in test [12], over 100 µM. For the same molecule, the TGI in [13], in test [14], in [15], in test [16], in [17] and in test [18] was over 100 µM each time. In addition, the TGI in test [19] came to 69.1 µM.

Consider `Oc1ccc(-c2cc(-c3cc(-c4ccc(O)cc4)no3)on2)cc1`, for which the TGI in test [1], in [2], in test [3], in test [4], in test [5] and in test [6] was over 100 µM each time. Further, the TGI in test [7], in test [8], in test [9], in test [10], in test [11] and in test [12] was over 100 µM throughout. In addition, the TGI in test [13], in [14], in test [15], in [16], in test [17] and in test [18] was over 100 µM each time. Also, the TGI in [19] is over 100 µM.

As for `COc1ccc(C2SCC(=O)N2c2ccc(-c3ccc(-n4c(-c5ccccc5)nc5ccccc5c4=O)cc3)cc2)cc1OC` (stereo not given), the TGI in test [1], in test [2], in test [3], in test [4], in test [5] and in [6] was over 100 µM in each case. Besides, the TGI in test [7] is 28.3 µM; in test [8] it was 51.5 µM; in [9], over 100 µM; in test [10], over 100 µM; in test [11], over 100 µM; in test [12] it was over 100 µM. Also, the TGI in [13], in test [15], in test [16], in [17] and in test [19] was over 100 µM in each case.

Take `CCN(CC)CC1CCCCN1CC(=O)N1c2ccccc2C(=O)Nc2cccnc21` (stereo not given): the TGI in [1] is over 100 µM; in test [2], 37.2 µM; in test [3], over 100 µM; in test [4], over 100 µM; in test [5], over 100 µM; in test [6], over 100 µM. In addition, the TGI in test [7] is over 100 µM; in test [8], 57.2 µM; in [9], over 100 µM; in test [10], over 100 µM; in test [11], 75.8 µM; in test [12], over 100 µM. Further, the TGI in test [13], in test [14], in [15], in test [16], in test [17] and in [18] was over 100 µM in each case. For the same molecule, in test [19], the TGI was over 100 µM.

Consider `O=C1CCCN1C(=O)CS(=O)(=O)c1ccccc1`, for which the TGI in test [1], in test [2], in [3], in test [4], in test [5] and in test [6] was over 100 µM each time. The TGI in test [7], in test [8], in [9], in [10], in test [11] and in test [12] was over 100 µM in each case. Besides, the TGI in test [13], in test [14], in test [15], in test [16], in test [17] and in test [18] was over 100 µM in each case. Also, in test [19], the TGI was over 100 µM.

As for `C=C(Br)CNC(=O)Nc1ccc(Cl)c(Cl)c1`, the TGI in test [1] was 54.2 µM; in test [2], 32.7 µM; in [3], over 100 µM; in [4] it was 41.2 µM; in [5], 54.3 µM; in test [6], 73.4 µM. The TGI came out at 34.4 µM in test [7]; 43.6 µM in [8]; 77.5 µM in test [9]; 48.6 µM in [10]; 32.9 µM in [11]; 38.8 µM in test [12]. For the same molecule, the TGI was over 100 µM in test [13]; 92.4 µM in test [14]; 40 µM in [16]; 91.9 µM in test [17]; 32.8 µM in [18]; over 100 µM in test [19].

For `COc1cc2c3c(c1)CCCN3CCC2`, the TGI in test [1], in test [2], in test [3], in test [4], in test [5] and in [6] was over 10 µM each time. Besides, the TGI in test [7], in [8], in test [9], in test [10], in [11] and in test [12] was over 10 µM in each case. Besides, the TGI in [13], in [15], in [16], in [17], in test [18] and in [19] was over 10 µM in each case.

With `O=c1[nH]cc(-c2c[nH]c3ccccc23)nc1-c1c[nH]c2ccccc12`, the TGI is 24.6 µM in test [1]; 26.7 µM in [2]; 23.7 µM in [3]; 33.3 µM in [4]; 39.9 µM in test [5]; over 100 µM in [7]. For the same molecule, the TGI in [8] was determined as 27.5 µM; in test [9], 28.1 µM; in [10] it was 24.1 µM; in test [11] it was 89.2 µM; in [12] it was 23.3 µM; in [13], 43.3 µM. Also, the TGI in test [14] is 27.6 µM; in test [15] it was 25.7 µM; in test [16] it was 10.3 µM; in test [17], 27.9 µM; in test [18], 34.2 µM; in test [19], 41.9 µM.

Take `C[n+]1ccc(/C2=C3\C=CC(=N3)/C(c3cc[n+](C)cc3)=c3/cc/c([nH]3)=C(\c3cc[n+](C)cc3)C3=N/C(=C(/c4cc[n+](C)cc4)C4C=CC2N4)C=C3)cc1`: the TGI in test [1], in test [2], in test [3], in [4], in test [5] and in test [6] was over 100 µM each time. Further, the TGI in test [7], in [8], in [9], in test [10], in test [11] and in test [12] was over 100 µM each time. In addition, the TGI in test [13], in test [14], in test [15], in [16], in [17] and in [19] was over 100 µM each time.
